Data from US20240365781A1, “SYNERGISTICALLY EFFECTIVE HERBICIDE COMPOSITION COMPRISING PELARGONIC ACID AND FLAZASULFURON” (Belchim Crop Protection NV, priority 2017, published 2024).

How the values were obtained:
Format in all cases: in vivo
[1] = system: Chenopodium album; test: post-emergence field trial under rows of apple trees, 150-200 L water/ha (Examples 10-12)
Procedure: (§1) Herbicidal activity was determined by performing a post-emergence test. […] The corresponding mixture was in the form of a spray solution. Besides, spray solutions of individual compositions comprising pelargonic acid or flazasulfuron were used.
(§2) The spray solution was applied on plants of unwanted vegetation present on fields where perennial crops were grown.
(§3) After 5 to 88 days after application of the spray solution, the degree of damage to the unwanted vegetation is rated in % of plants of unwanted vegetation that were killed. Tests were performed on test fields (field trials).

[2] = system: Stellaria media; test: as above
Procedure: as §1, §2, §3

[3] = system: Poa annua; test: as above
Procedure: as §1, §2, §3

[4] = system: Trifolium repens; test: as above
Procedure: as §1, §2, §3

[5] = system: Lolium multiflorum; test: as above
Procedure: as §1, §2, §3

[6] = system: Veronica persicae; test: as above
Procedure: as §1, §2, §3

[7] = system: Setaria viridis; test: as above
Procedure: as §1, §2, §3

[8] = system: Geranium dissectum; test: post-emergence test, pot trial (Examples 1-5); conditions: 28 d, PT, pelargonic acid 10880 g/ha, 16 L/ha
From the text: (§4) The expected activity of a given combination of two or three herbicides can be calculated as follows according to a calculation method by Colby (cf. COLBY, S. R.: “Calculating synergistic and antagonistic responses of herbicide combinations”, • Weeds 15, pages 20-22, 1967): • If X=% damage by herbicide (A) at an application rate of m g/ha, • Y=% damage by herbicide (B) at an application rate of n g/ha, • E=the expected damage by herbicides (A) and (B) at application rates of m and n […] and, • then for a combination:
(§5) Individual compositions comprising pelargonic acid or flazasulfuron are compared with a herbicide composition according to the invention comprising pelargonic acid and flazasulfuron.
(§6) Herbicidal activity was determined by performing a post-emergence test. […] The corresponding mixture was in the form of a spray liquor. Besides, spray liquors of individual compositions comprising pelargonic acid or flazasulfuron were used.
(§7) Tests were performed on test fields (field trials) or in pots (pot trials).

[9] = system: Setaria pumila; test: post-emergence test, pot trial (Examples 1-5); conditions: young plants, 28 d, PT, pelargonic acid 10880 g/ha, 16 L/ha
From the text: as §4, §5, §6, §7

[10] = system: Matricaria chamomilla; test: post-emergence test, pot trial (Examples 1-5); conditions: bigger plants, 28 d, PT, pelargonic acid 10880 g/ha, 16 L/ha
From the text: as §4, §5, §6, §7

[11] = system: Poa annua; test: post-emergence test, pot trial (Examples 1-5); conditions: 28 d, PT; pelargonic acid 10880 g/ha, flazasulfuron 50 g/ha; 16 L/ha
From the text: as §4, §5, §6, §7

[12] = system: Trifolium repens; test: post-emergence test, pot trial (Examples 1-5); conditions: 28 d, PT; pelargonic acid 10880 g/ha, flazasulfuron 50 g/ha; 16 L/ha
From the text: as §4, §5, §6, §7

[13] = system: Veronica persica; test: post-emergence test, field trial (Examples 1-5); conditions: FT, pelargonic acid 5440 g/ha, flazasulfuron 50 g/ha, 8 L/ha
How it was run: (§8)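 Read-out: % herbicidal damage after post-emergence spraying. Treatments: pelargonic acid alone, flazasulfuron alone, and both combined as spray liquor. Expected combination effect computed per Colby from the individual damage values.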

[14] = system: Sonchus oleraceus L.; test: post-emergence test, field trial (Examples 1-5); conditions: FT, pelargonic acid 5440 g/ha, flazasulfuron 50 g/ha, 8 L/ha
How it was run: as §8

[15] = system: Digitaria sang; test: post-emergence test, field trial (Examples 1-5); conditions: FT, pelargonic acid 5440 g/ha, flazasulfuron 50 g/ha, 8 L/ha
How it was run: as §8

[16] = system: Anagallis arvensis; test: post-emergence test, field trial (Examples 1-5); conditions: 3 d, FT; pelargonic acid 5440 g/ha, flazasulfuron 50 g/ha; 8 L/ha
How it was run: as §8

[17] = system: Lolium sp.; test: post-emergence test, field trial (Examples 1-5); conditions: 7 d, FT; pelargonic acid 5440 g/ha, flazasulfuron 50 g/ha; 8 L/ha
How it was run: as §8

CCCCCCCCC(=O)O [Pelargonic acid, nonanoic acid]
herbicidal effect (%) ([1]; Chenopodium album/6 d, 5440 g of active compound/ha): 20%
herbicidal effect (%) ([1]; Chenopodium album/6 d, 8160 g of active compound/ha): 50%
herbicidal effect (%) ([1]; Chenopodium album/6 d, 10880 g of active compound/ha): 60%
herbicidal effect (%) ([1]; Chenopodium album/16 d, 5440 g of active compound/ha): 48%
herbicidal effect (%) ([1]; Chenopodium album/16 d, 8160 g of active compound/ha): 63%
herbicidal effect (%) ([1]; Chenopodium album/16 d, 10880 g of active compound/ha): 63%
herbicidal effect (%) ([1]; Chenopodium album/30 d, 5440 g of active compound/ha): 55%
herbicidal effect (%) ([1]; Chenopodium album/30 d, 8160 g of active compound/ha): 58%
herbicidal effect (%) ([1]; Chenopodium album/30 d, 10880 g of active compound/ha): 70%
herbicidal effect (%) ([1]; Chenopodium album/57 d, 5440 g of active compound/ha): 0%
herbicidal effect (%) ([1]; Chenopodium album/57 d, 8160 g of active compound/ha): 0%
herbicidal effect (%) ([1]; Chenopodium album/57 d, 10880 g of active compound/ha): 0%
herbicidal effect (%) ([1]; Chenopodium album/78 d, 5440 g of active compound/ha): 0%
herbicidal effect (%) ([1]; Chenopodium album/78 d, 8160 g of active compound/ha): 0%
herbicidal effect (%) ([1]; Chenopodium album/78 d, 10880 g of active compound/ha): 0%
herbicidal effect (%) ([2]; Stellaria media/5 d, 5440 g of active compound/ha): 5%
herbicidal effect (%) ([2]; Stellaria media/5 d, 10880 g of active compound/ha): 89%
herbicidal effect (%) ([2]; Stellaria media/18 d, 5440 g of active compound/ha): 0%
herbicidal effect (%) ([2]; Stellaria media/18 d, 8160 g of active compound/ha): 0%
herbicidal effect (%) ([2]; Stellaria media/18 d, 10880 g of active compound/ha): 0%
herbicidal effect (%) ([3]; Poa annua/6 d, 5440 g of active compound/ha): 23%
herbicidal effect (%) ([3]; Poa annua/6 d, 8160 g of active compound/ha): 40%
herbicidal effect (%) ([3]; Poa annua/6 d, 10880 g of active compound/ha): 45%
herbicidal effect (%) ([3]; Poa annua/16 d, 5440 g of active compound/ha): 55%
herbicidal effect (%) ([3]; Poa annua/16 d, 8160 g of active compound/ha): 58%
herbicidal effect (%) ([3]; Poa annua/16 d, 10880 g of active compound/ha): 60%
herbicidal effect (%) ([3]; Poa annua/30 d, 5440 g of active compound/ha): 53%
herbicidal effect (%) ([3]; Poa annua/30 d, 8160 g of active compound/ha): 55%
herbicidal effect (%) ([3]; Poa annua/30 d, 10880 g of active compound/ha): 65%
herbicidal effect (%) ([3]; Poa annua/57 d, 5440 g of active compound/ha): 0%
herbicidal effect (%) ([3]; Poa annua/57 d, 8160 g of active compound/ha): 0%
herbicidal effect (%) ([3]; Poa annua/57 d, 10880 g of active compound/ha): 0%
herbicidal effect (%) ([3]; Poa annua/78 d, 5440 g of active compound/ha): 0%
herbicidal effect (%) ([3]; Poa annua/78 d, 8160 g of active compound/ha): 0%
herbicidal effect (%) ([3]; Poa annua/78 d, 10880 g of active compound/ha): 1%
herbicidal effect (%) ([4]; Trifolium repens/7 d, 5440 g of active compound/ha): 59%
herbicidal effect (%) ([4]; Trifolium repens/7 d, 8160 g of active compound/ha): 73%
herbicidal effect (%) ([4]; Trifolium repens/7 d, 10880 g of active compound/ha): 75%
herbicidal effect (%) ([4]; Trifolium repens/16 d, 5440 g of active compound/ha): 9%
herbicidal effect (%) ([4]; Trifolium repens/16 d, 8160 g of active compound/ha): 13%
herbicidal effect (%) ([4]; Trifolium repens/16 d, 10880 g of active compound/ha): 23%
herbicidal effect (%) ([4]; Trifolium repens/26 d, 5440 g of active compound/ha): 0%
herbicidal effect (%) ([4]; Trifolium repens/26 d, 8160 g of active compound/ha): 0%
herbicidal effect (%) ([4]; Trifolium repens/26 d, 10880 g of active compound/ha): 0%
herbicidal effect (%) ([4]; Trifolium repens/59 d, 5440 g of active compound/ha): 0%
herbicidal effect (%) ([4]; Trifolium repens/59 d, 8160 g of active compound/ha): 0%
herbicidal effect (%) ([4]; Trifolium repens/59 d, 10880 g of active compound/ha): 0%
herbicidal effect (%) ([5]; Lolium multiflorum/5 d, 5440 g of active compound/ha): 3%
herbicidal effect (%) ([5]; Lolium multiflorum/5 d, 10880 g of active compound/ha): 13%
herbicidal effect (%) ([5]; Lolium multiflorum/18 d, 5440 g of active compound/ha): 0%
herbicidal effect (%) ([5]; Lolium multiflorum/18 d, 8160 g of active compound/ha): 0%
herbicidal effect (%) ([5]; Lolium multiflorum/18 d, 10880 g of active compound/ha): 0%
herbicidal effect (%) ([5]; Lolium multiflorum/32 d, 5440 g of active compound/ha): 0%
herbicidal effect (%) ([5]; Lolium multiflorum/32 d, 8160 g of active compound/ha): 0%
herbicidal effect (%) ([5]; Lolium multiflorum/32 d, 10880 g of active compound/ha): 0%
herbicidal effect (%) ([5]; Lolium multiflorum/61 d, 5440 g of active compound/ha): 0%
herbicidal effect (%) ([5]; Lolium multiflorum/61 d, 8160 g of active compound/ha): 0%
herbicidal effect (%) ([5]; Lolium multiflorum/61 d, 10880 g of active compound/ha): 0%
herbicidal effect (%) ([5]; Lolium multiflorum/88 d, 5440 g of active compound/ha): 0%
herbicidal effect (%) ([5]; Lolium multiflorum/88 d, 8160 g of active compound/ha): 0%
herbicidal effect (%) ([5]; Lolium multiflorum/88 d, 10880 g of active compound/ha): 0%
herbicidal effect (%) ([6]; Veronica persicae/7 d, 5440 g of active compound/ha): 56%
herbicidal effect (%) ([6]; Veronica persicae/7 d, 8160 g of active compound/ha): 70%
herbicidal effect (%) ([6]; Veronica persicae/7 d, 10880 g of active compound/ha): 73%
herbicidal effect (%) ([6]; Veronica persicae/16 d, 5440 g of active compound/ha): 30%
herbicidal effect (%) ([6]; Veronica persicae/16 d, 8160 g of active compound/ha): 48%
herbicidal effect (%) ([6]; Veronica persicae/16 d, 10880 g of active compound/ha): 45%
herbicidal effect (%) ([6]; Veronica persicae/26 d, 5440 g of active compound/ha): 0%
herbicidal effect (%) ([6]; Veronica persicae/26 d, 8160 g of active compound/ha): 0%
herbicidal effect (%) ([6]; Veronica persicae/26 d, 10880 g of active compound/ha): 0%
herbicidal effect (%) ([6]; Veronica persicae/59 d, 5440 g of active compound/ha): 0%
herbicidal effect (%) ([6]; Veronica persicae/59 d, 8160 g of active compound/ha): 0%
herbicidal effect (%) ([6]; Veronica persicae/59 d, 10880 g of active compound/ha): 0%
herbicidal effect (%) ([7]; Setaria viridis/6 d, 5440 g of active compound/ha): 13%
herbicidal effect (%) ([7]; Setaria viridis/6 d, 8160 g of active compound/ha): 35%
herbicidal effect (%) ([7]; Setaria viridis/6 d, 10880 g of active compound/ha): 40%
herbicidal effect (%) ([7]; Setaria viridis/16 d, 5440 g of active compound/ha): 43%
herbicidal effect (%) ([7]; Setaria viridis/16 d, 8160 g of active compound/ha): 45%
herbicidal effect (%) ([7]; Setaria viridis/16 d, 10880 g of active compound/ha): 48%
herbicidal effect (%) ([7]; Setaria viridis/30 d, 5440 g of active compound/ha): 53%
herbicidal effect (%) ([7]; Setaria viridis/30 d, 8160 g of active compound/ha): 53%
herbicidal effect (%) ([7]; Setaria viridis/30 d, 10880 g of active compound/ha): 53%
herbicidal effect (%) ([7]; Setaria viridis/57 d, 5440 g of active compound/ha): 0%
herbicidal effect (%) ([7]; Setaria viridis/57 d, 8160 g of active compound/ha): 0%
herbicidal effect (%) ([7]; Setaria viridis/57 d, 10880 g of active compound/ha): 0%
herbicidal effect (%) ([7]; Setaria viridis/78 d, 5440 g of active compound/ha): 0%
herbicidal effect (%) ([7]; Setaria viridis/78 d, 8160 g of active compound/ha): 0%
herbicidal effect (%) ([7]; Setaria viridis/78 d, 10880 g of active compound/ha): 0%
herbicidal effect ([8]; bigger plants, flazasulfuron 50 g/ha): 24%
herbicidal effect ([8]; young plants, flazasulfuron 25 g/ha): 32%
herbicidal effect ([8]; young plants, flazasulfuron 50 g/ha): 32%
herbicidal effect ([9]; flazasulfuron 25 g/ha): 40%
herbicidal effect ([9]; flazasulfuron 50 g/ha): 40%
herbicidal effect ([10]; flazasulfuron 25 g/ha): 0%
herbicidal effect ([10]; flazasulfuron 50 g/ha): 0%
herbicidal effect [11]: 0%
herbicidal effect [12]: 0%
herbicidal effect ([13]; 3 d): 8.8%
herbicidal effect ([13]; 7 d): 20%
herbicidal effect ([13]; 56 d): 16.3%
herbicidal effect ([14]; 3 d): 2.5%
herbicidal effect ([14]; 7 d): 1.3%
herbicidal effect ([14]; 13 d): 3.8%
herbicidal effect ([14]; 28 d): 1.3%
herbicidal effect ([14]; 58 d): 0%
herbicidal effect ([15]; 3 d): 51.3%
herbicidal effect ([15]; 7 d): 30.8%
herbicidal effect ([15]; 12 d): 5%
herbicidal effect ([15]; 72 d): 0%
herbicidal effect [16]: 13.8%
herbicidal effect [17]: 18.8%
